According to the supplement of paper PMC10307832:

Assays:
Assay in all cases: relative viability (nuclei count vs DMSO), 5 days (fraction); higher = more cells survive
NCI-H322M = tested on: NCI-H322M
Outline: (§1)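 Dosing by pin tool came one day after lung cancer cell lines were seeded in 1536-well plates, using either one drug or a fixed anchor-drug dose plus five library-drug doses (not always all listed) in √10 steps. After 5 days, nuclei were counted on 4× images. Relative viability is treated-well nuclei count divided by vehicle-well nuclei count, and values are medians of duplicate plates.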

NCI-H1792 = tested on: NCI-H1792
Outline: as §1

PC-14 = tested on: PC-14
Outline: as §1

NCI-H1755 = tested on: NCI-H1755
Outline: as §1

LXF-289 = tested on: LXF-289
Outline: as §1

NCI-H1355 = tested on: NCI-H1355
Outline: as §1

SW 900 = tested on: SW 900
Outline: as §1

NCI-H441 = tested on: NCI-H441
Outline: as §1

NCI-H3122 = tested on: NCI-H3122
Outline: as §1

NCI-H522 = tested on: NCI-H522
Outline: as §1

RERF-LC-KJ = tested on: RERF-LC-KJ
Outline: as §1

NCI-H460 = tested on: NCI-H460
Outline: as §1

NCI-H1651 = tested on: NCI-H1651
Outline: as §1

LCLC-103H = tested on: LCLC-103H
Outline: as §1

NCI-H1915 = tested on: NCI-H1915
Outline: as §1

NCI-H727 = tested on: NCI-H727
Outline: as §1

NCI-H596 = tested on: NCI-H596
Outline: as §1

NCI-H2347 = tested on: NCI-H2347
Outline: as §1

Cc1sc2c(c1C)C(c1ccc(Cl)cc1)=N[C@@H](CC(=O)OC(C)(C)C)c1nnc(C)n1-2 [JQ1] + NC(=O)Nc1cc(-c2cccc(F)c2)sc1C(=O)N[C@H]1CCCNC1 [AZD7762] (partner 0.2 µM)
relative viability (NCI-H322M; first compound 0.04 µM): 0.532 | relative viability (NCI-H322M; first compound 0.1265 µM): 0.534 | relative viability (NCI-H322M; first compound 0.4 µM): 0.44 | relative viability (NCI-H322M; first compound 1.265 µM): 0.397 | relative viability (NCI-H322M; first compound 4 µM): 0.437 | relative viability (NCI-H1792; first compound 0.04 µM): 0.62 | relative viability (NCI-H1792; first compound 0.1265 µM): 0.46 | relative viability (NCI-H1792; first compound 0.4 µM): 0.38 | relative viability (NCI-H1792; first compound 1.265 µM): 0.14 | relative viability (NCI-H1792; first compound 4 µM): 0.0872 | relative viability (PC-14; first compound 0.04 µM): 0.267 | relative viability (PC-14; first compound 0.1265 µM): 0.259 | relative viability (PC-14; first compound 0.4 µM): 0.207 | relative viability (PC-14; first compound 1.265 µM): 0.125 | relative viability (PC-14; first compound 4 µM): 0.0805 | relative viability (NCI-H1755; first compound 0.04 µM): 0.533 | relative viability (NCI-H1755; first compound 0.1265 µM): 0.387 | relative viability (NCI-H1755; first compound 0.4 µM): 0.565 | relative viability (NCI-H1755; first compound 1.265 µM): 0.507 | relative viability (NCI-H1755; first compound 4 µM): 0.433 | relative viability (LXF-289; first compound 0.04 µM): 1.12 | relative viability (LXF-289; first compound 0.1265 µM): 1.07 | relative viability (LXF-289; first compound 0.4 µM): 0.851 | relative viability (LXF-289; first compound 1.265 µM): 1.02 | relative viability (LXF-289; first compound 4 µM): 0.512 | relative viability (NCI-H1355; first compound 0.04 µM): 0.747 | relative viability (NCI-H1355; first compound 0.1265 µM): 0.769 | relative viability (NCI-H1355; first compound 0.4 µM): 0.705 | relative viability (NCI-H1355; first compound 1.265 µM): 0.554 | relative viability (NCI-H1355; first compound 4 µM): 0.406 | relative viability (SW 900; first compound 0.04 µM): 0.562 | relative viability (SW 900; first compound 0.1265 µM): 0.556 | relative viability (SW 900; first compound 0.4 µM): 0.309 | relative viability (SW 900; first compound 1.265 µM): 0.2 | relative viability (SW 900; first compound 4 µM): 0.147 | relative viability (NCI-H441; first compound 0.04 µM): 1.07 | relative viability (NCI-H441; first compound 0.1265 µM): 1.16 | relative viability (NCI-H441; first compound 0.4 µM): 1.04 | relative viability (NCI-H441; first compound 1.265 µM): 0.369 | relative viability (NCI-H441; first compound 4 µM): 0.249 | relative viability (NCI-H3122; first compound 0.04 µM): 1.04 | relative viability (NCI-H3122; first compound 0.1265 µM): 0.965 | relative viability (NCI-H3122; first compound 0.4 µM): 0.971 | relative viability (NCI-H3122; first compound 1.265 µM): 0.883 | relative viability (NCI-H3122; first compound 4 µM): 0.693 | relative viability (NCI-H522; first compound 0.04 µM): 0.974 | relative viability (NCI-H522; first compound 0.1265 µM): 0.685 | relative viability (NCI-H522; first compound 0.4 µM): 0.774 | relative viability (NCI-H522; first compound 1.265 µM): 0.52 | relative viability (NCI-H522; first compound 4 µM): 0.397 | relative viability (RERF-LC-KJ; first compound 0.04 µM): 1.02 | relative viability (RERF-LC-KJ; first compound 0.1265 µM): 0.803 | relative viability (RERF-LC-KJ; first compound 0.4 µM): 0.976 | relative viability (RERF-LC-KJ; first compound 1.265 µM): 0.816 | relative viability (RERF-LC-KJ; first compound 4 µM): 0.358 | relative viability (NCI-H460; first compound 0.04 µM): 0.594 | relative viability (NCI-H460; first compound 0.1265 µM): 0.327 | relative viability (NCI-H460; first compound 0.4 µM): 0.644 | relative viability (NCI-H460; first compound 1.265 µM): 0.443 | relative viability (NCI-H460; first compound 4 µM): 0.106 | relative viability (NCI-H1651; first compound 0.04 µM): 0.538 | relative viability (NCI-H1651; first compound 0.1265 µM): 0.45 | relative viability (NCI-H1651; first compound 0.4 µM): 0.427 | relative viability (NCI-H1651; first compound 1.265 µM): 0.421 | relative viability (NCI-H1651; first compound 4 µM): 0.419 | relative viability (LCLC-103H; first compound 0.04 µM): 0.778 | relative viability (LCLC-103H; first compound 0.1265 µM): 0.713 | relative viability (LCLC-103H; first compound 0.4 µM): 0.701 | relative viability (LCLC-103H; first compound 1.265 µM): 0.492 | relative viability (LCLC-103H; first compound 4 µM): 0.438 | relative viability (NCI-H1915; first compound 0.04 µM): 0.729 | relative viability (NCI-H1915; first compound 0.4 µM): 0.653 | relative viability (NCI-H1915; first compound 1.265 µM): 0.437 | relative viability (NCI-H1915; first compound 4 µM): 0.241 | relative viability (NCI-H727; first compound 0.04 µM): 0.735 | relative viability (NCI-H727; first compound 0.1265 µM): 0.61 | relative viability (NCI-H727; first compound 0.4 µM): 0.539 | relative viability (NCI-H727; first compound 1.265 µM): 0.436 | relative viability (NCI-H727; first compound 4 µM): 0.405 | relative viability (NCI-H596; first compound 0.04 µM): 1.02 | relative viability (NCI-H596; first compound 0.1265 µM): 0.898 | relative viability (NCI-H596; first compound 0.4 µM): 0.704 | relative viability (NCI-H596; first compound 1.265 µM): 0.632 | relative viability (NCI-H596; first compound 4 µM): 0.373 | relative viability (NCI-H2347; first compound 0.04 µM): 0.811 | relative viability (NCI-H2347; first compound 0.1265 µM): 0.917 | relative viability (NCI-H2347; first compound 0.4 µM): 0.724 | relative viability (NCI-H2347; first compound 1.265 µM): 0.445 | relative viability (NCI-H2347; first compound 4 µM): 0.357
